Usually melting point stands for the temperature of the solid-liquid transition.

This is an account of results in US20060069013A1, “Pharmaceutical preparations comprising acid-stabilised insulin” (Novo Nordisk A/S, priority 2003, published 2006).

Details in the first data set: not given
Molecule `COc1cc(C=C2SC(=O)NC2=O)cc(I)c1O` [Example 167, 5-(4-Hydroxy-3-iodo-5-methoxybenzylidene)thiazolidine-2,4-dione] came in with a melting point of 256 °C.
On the same count and under the same terms, as for `O=C1NC(=O)/C(=C/c2ccc3cc(O)ccc3c2)S1` [Example 171, 5-(6-Hydroxy-2-naphthylmethylene) thiazolidine-2,4-dione], the figure is 310 to 314 °C; as for `O=C1NC(=O)/C(=C/c2c[nH]c3ccc([N+](=O)[O-])cc23)S1` [Example 199, 5-(5-Nitro-1H-indol-3-ylmethylene)thiazolidine-2,4-dione], 330 to 333 °C.
Still for that read-out and setting: as for `O=C1NC(=O)/C(=C/c2c(Cl)cccc2Cl)S1` [Example 229, 5-(2,6-Dichlorobenzylidene)thiazolidine-2,4-dione], the figure is 152 to 154 °C; as for `COc1cc(O)cc(OC)c1/C=C1\SC(=O)NC1=O` [Example 234, 5-(4-Hydroxy-2,6-dimethoxybenzylidene)thiazolidine-2,4-dione], 331 to 333 °C.
Same read-out and setting: as for `COc1cc(OCc2c(F)cccc2[N+](=O)[O-])cc(OC)c1/C=C1\SC(=O)NC1=O` [Example 237, 5-[4-(2-Fluoro-6-nitrobenzyloxy)-2,6-dimethoxybenzylidene]thiazolidine-2,4-dione], the figure is 255 to 256 °C; as for `O=C1NC(=O)/C(=C/c2cc3ccccc3o2)S1` [Example 238, 5-Benzofuran-2-ylmethylenethiazolidine-2,4-dione], 265 to 266 °C; as for `CN(C)c1ccc(/C=C/C=C2\SC(=O)NC2=O)cc1` [Example 239, 5-[3-(4-Dimethylaminophenyl)allylidene]thiazolidine-2,4-dione], 259 to 263 °C.
`CC(/C=C1\SC(=O)NC1=O)=C\c1ccccc1` [Example 240, 5-(2-Methyl-3-phenylallylidene)thiazolidine-2,4-dione] gave a melting point of 203 to 210 °C.
Still for that read-out and setting: in the case of `O=C1NC(=O)/C(=C/C(Cl)=C/c2ccccc2)S1` [Example 241, 5-(2-Chloro-3-phenylallylidene)thiazolidine-2,4-dione] it was 251 to 254 °C; in that of `O=C1NC(=O)/C(=C/c2cc3ccccc3[nH]c2=O)S1` [Example 242, 5-(2-Oxo-1,2-dihydroquinolin-3-ylmethylene)thiazolidine-2,4-dione], 338 to 347 °C.
On the same count and under the same terms, in the case of `c1cc(COc2ccc3ccccc3c2)cc(-c2nnn[nH]2)c1` [Example 572, 5-(3-(Naphthalen-2-yloxymethyl)-phenyl)-1H-tetrazole] it was 200 to 202 °C.

For another data set the following is noted: after subcutaneous injection of a soluble preparation; background statement; cited from earlier work.
Consider “Co^3+-hexamer: "absorption rates vary between about 1 hour (for rapid-acting insulin analogues ...) and about 4 hours (Co^3+-hexamer)"”, for which the absorption rates result is “about 4 hour”.

The data set is the same for the next values; noted with them: in vivo, sc; cited from earlier work.
For the molecule Asp^B28 human insulin, the absorption rates entry is given as “about 1 hour”.
Regarding “soluble human insulin hexamer: "inherent limitation of the absorption half-life to about 4 hours for a soluble human insulin hexamer"”, the absorption half-life result was “about 4 hours”.
